Source: publication PMC7225193, “An Integrated Dialysis Pharmacometric (IDP) Model to Evaluate the Pharmacokinetics in Patients Undergoing Renal Replacement Therapy” (Pharmaceutical Research, 2020)

What was measured:
[1] = In vitro RRT study of teicoplanin in bovine blood, evaluated with the IDP model; type: in vitro ADME
Experimental: For all population pharmacokinetic modelling work in this study, NONMEM® (ICON development service, Gaithersburg, MD, version 7.4) was used. The inter-individual variability of the pharmacokinetic parameters was assumed to be log-normally distributed. For the intra-individual, residual variability an additive, proportional or combined error model was used. In the clinical data examples, models were evaluated by graphical and numerical criteria (goodness of fit plots, visual predictive checks and drop in objective function value (dOFV)). The LLP-SIR (log-likelihood-profiling based sampling-importance-resampling) method was employed for the assessment of parameter uncertainty, since a small number of subjects or cases was investigated.
An in vitro study investigating RRT of teicoplanin in bovine blood was evaluated using the IDP model. 51 pre-filter plasma samples and 45 post-filter plasma samples were included. 45 effluent samples were collected which were all below the lower limit of quantification (5 mg/L), which was considered in the analyses by comparison to simulations after estimation. A blood concentration of 25 mg/L using a volume of 2.2–2.5 L was studied. The blood flow rate was set to 250 mL/min and the dialysate flow rate to 500 mL/min without filtration. In five experiments, a polysulphone membrane (n = 3: FX80, Fresenius Medical Company, Austria, n = 2: F60 S, Fresenius Medical Company, Austria), and in one experiment a triacetate membrane (Ni 21 e, Surflux-21E, Nipro Corporation, Japan) was used. The IDP model was used to describe the RRT clearance and adsorption to the dialysis membranes was evaluated.

[2] = patients with normal serum albumin concentrations; cited from earlier work
Source text: Protein binding plays an important role when the RRT clearance is only estimated based on drug characteristics, since it is assumed that only unbound drug can be dialyzed or filtrated. The integrated model allows direct assessment of the RRT clearance without assumptions on the efficacy in dialysis and filtration processes based on the unbound fraction. Moreover, elimination processes, that are independent of dialysis and filtration, e.g. adsorption to the dialysis membrane, can be quantified. RRT clearance of highly protein bound drugs, e.g. teicoplanin presenting a protein binding of >90% in ...

[3] = cited from earlier work

Compound	CLRRT ([1]; bovine blood, 25 mg/L, blood flow 250 mL/min, dialysate flow 500 mL/min, no filtration, IDP model)	FractionAdsorbed (fraction of the RRT clearance mediated via adsorption) ([1]; bovine blood, IDP model)	RRT clearance ([1]; bovine blood, IDP model, changing over time)	Ads. capacity polysulfone FX80/F60S ([1]; polysulphone membranes, five experiments)	Adsorption capacity triacetate ([1]; triacetate membrane Ni 21 e, n = 1 experiment)	protein binding [2]	degradation half-life in stabilizing conditions [3]
teicoplanin	76.5 mL/min	0.891	4.59 L/h	31.2 mg	8.6 mg	> 90%	–
C[C@@H](O)[C@H]1C(=O)N2C(C(=O)O)=C(S[C@@H]3CN[C@H](CNS(N)(=O)=O)C3)[C@H](C)[C@H]12 [Doripenem, doripenem]	–	–	–	–	–	–	> 100 h
